Measured values taken from patent publication US20250332397A1, “SYSTEMS AND METHODS FOR MICRONEEDLE THERAPEUTIC DELIVERY WITH ACOUSTIC SIGNALS” (THE TRUSTEES OF INDIANA UNIVERSITY, priority 2021, published 2025).

Experiments:
[1] = Ex vivo delivery in mice skin tissues (dye released, absorbance); assay type: in vitro ADME, BALB/c mice; details: FIG. 10; 1 Mhz, duty cycle 15%, 4.2 w/cm^2; 30 s, 60 s, 180 s
Description: The prepared RhB dye (or epinephrine) loaded acoustic patches (or passive patches) were inserted into the fresh hair removed skin tissues harvested from BALB/c mice, and removed from the mice skin tissues. The acoustic path treatment condition (frequency, 1 Mhz; duty cycle, 15%; energy density, 4.2 w/cm^2) was applied to three mouse skin tissues, while there was not acoustic stimulation for passive patch treatments. The mouse skin tissues after acoustic patch and passive treatments with three different treatment time (e.g., 30 s, 60 s, or 180 s) were analyzed.

[2] = acoustic patch mediated delivery, mouse "B"

Description for anaphylactic mouse model: Olbumin from chicken egg white (OVA) was used as antigen to induce anaphylaxis, where OVA dosage could regulate the degree of anaphylaxis. Specifically, an OVA solution as an adjuvant was prepared in 1 mg/mL of OVA with 1 μg/mL of Pertussis toxin and 10 mg/mL of aluminum potassium sulfate in 0.9% saline. To sensitize mice, BALB/c mice were injected intraperitoneally with 100 μL of the adjuvant OVA solution. After 3 weeks, these actively sensitize mice were challenged with 10 mg/mL of the adjuvant OVA solution. To trigger the anaphylactic reaction, a 50 μL of 10 mg/mL OVA solution in 0.9% saline was injected intraperitoneally into a mouse. The whole anaphylactic process lasted for about 120 mins, and all the mice were sacrificed after the experimental procedures.
The mice during anaphylaxis were characterized via physiological parameters and symptoms including rectal temperature, movement score, respiratory rate, or blood histamine level. Rectal temperature was measured using a rectal probe for mice in every 2 min in real-time. Respiratory rate was measured through counting the breaths during every 20 seconds through observing the thoracic movement. Movement score was tested by rules as follows: (1) react actively after provoking; (2) slow in response after provoking; (3) no active response after provoking; (4) died. Blood histamine level was measured by testing whole blood samples through tail vein through an ELISA kit (Catalog No: IT6088, vendors). Samples were all restored in −80° C. refrigerator for later assessment of the concentration of histamine by an ELISA kit.
Mice were sensitized via intraperitoneal injection of chicken ovalbumin (OVA) and aluminum potassium sulfate adjuvant and triggered an acute allergic reaction by injecting OVA as an allergen after three weeks. […] We measured the core temperature and respiratory rate of the sensitized mice during the induction of anaphylaxis.

dye released into mouse skin over different delivery times, with acoustics vs without acoustics [1] | SMILES | allergic symptoms of mouse experiencing severe anaphylaxis (anaphylactic mouse model; [2]) | body temperature of mouse experiencing severe anaphylaxis (anaphylactic mouse model; [2]) | symptoms of anaphylaxis (hypothermia, reduced activity, opisthotonos) (anaphylactic mouse model; after intramuscular injection)
– | CNC[C@H](O)c1ccc(O)c(O)c1 [epinephrine] | relief from allergic symptoms | immediate body temperature increase | obtained relief from these symptoms
increased delivery | CCN(CC)c1ccc2c(-c3ccc(S(=O)(=O)O)cc3S(=O)(=O)[O-])c3ccc(=[N+](CC)CC)cc-3oc2c1 [RhB dye, sulforhodamine B] | – | – | –
